According to patent publication US20110039787A1, “COMPOSITIONS, KITS AND METHODS FOR TREATING BENIGN PROSTATE HYPERPLASIA” (priority 2009, published 2011):
Square brackets hold non-standard residues; d marks the D form. Peptide text beside a SMILES is read from it. * marks the point of attachment. dPhe(4-NHCONH2) = NC(=O)Nc1ccc(C[C@@H](N)C(=O)O)cc1; Dihydroorotyl(S) = O=C1C[C@@H](C(=O)*)NC(=O)N1; dPhe(4-Cl) = N[C@H](Cc1ccc(Cl)cc1)C(=O)O; Phe(4-NH2) = Nc1ccc(C[C@H](N)C(=O)O)cc1; d2Nal = N[C@H](Cc1ccc2ccccc2c1)C(=O)O; Lys(iPr) = CC(C)NCCCC[C@H](N)C(=O)O; d3Pal = N[C@H](Cc1cccnc1)C(=O)O

Key:
[1] = system: men with BPH; details: in vivo
Protocol: The study population was men with BPH with: a prostate volume larger than 30 mL, a maximal uroflow of 12 mL/s (with some exceptions), an IPSS score of at least 13, serum prostatic specific antigen (PSA) below 10 ng/mL, and no evidence of prostate cancer. Altogether, 52 patients with BPH were randomly assigned to four parallel groups of 13 patients each.
The patients were randomly allocated to receive either: one injection of 64 mg degarelix on Day 0 (hereinafter termed “64 mg”); one injection of 32 mg degarelix on Day 0 and one on Day 14 (hereinafter termed “32+32 mg”); one injection of 32 mg degarelix on Day 0 (hereinafter termed “32 mg”); or one injection of 16 mg degarelix on Day 0 and one on Day 14 (hereinafter termed “16+16 mg”).
In order to evaluate the effects of degarelix on urinary morbidity, sexual function and overall quality of life (QoL) due to urinary condition, patient reported questionnaires (IPSS, IIEF, and IPSS-global QoL) were used. The questionnaires were answered by the patient at the clinic visits, in line with standard procedures.
The IIEF questionnaire evaluated sexual dysfunction associated with treatment. […] Question numbers one to ten are scored on a six-point scale from zero ('No sexual activity') to five (Almost always to always'). Question numbers 11-15 are scored on a five-point scale from one (Almost never or never') to five (Almost always to always'). […]

[2] = system: men with BPH; assay: IPSS global QoL question, clinical trial in BPH patients; format: in vivo
Protocol: (§1) For each patient, the following parameters were measured or assessed (using the methods discussed below), at time points of screening day 0 (e.g., −7 days, “baseline”), day 14, day 28, and day 42:
(§2) After the initial 6-week treatment period of the exploratory study had been completed, a 12-month follow-up period looking at long-term efficacy commenced. Interim data of the main efficacy variables (IPSS, IPSS Global QoL, prostate volume, urinary flow, and post-void residual volume—measured as set out below) after 6 months' follow-up are also presented herein at Tables 1, 2, 3, and FIG. 1b. FIG. 1b also includes IPSS data at 9 and 12 months.
Included in the IPSS is one item to evaluate QoL (i.e., IPSS-global QoL). The Global QoL Question was developed alongside the IPSS and was officially included as part of the IPSS in 1993 when the WHO formally recommended the IPSS for both symptom and QoL assessment. […] This question assesses the degree to which patients find their symptoms bothersome. Patients are asked about how they would feel if they were to spend the rest of their lives with their prostate symptoms just as they are now. The choices for answering this quality of life question range from “delighted” (rating=0) to “terrible” (rating=6).

[3] = system: men with BPH; assay: Post-void residual volume by transabdominal ultrasound; format: in vivo; details: all treatment groups
Protocol: as §1
(§3) 2) Efficacy Endpoints—the measured Peak Urinary Flow, Post-void Residual Volume, and Prostate Volume.
The Post-void Residual Volume (PVR) was evaluated by transabdominal ultrasound. The urine in the patient's bladder was sonicated from two directions perpendicular to one another resulting in three cursor positions set by the urologist. The volume was calculated automatically. The investigations were performed by urologists by methods known in the art.

[4] = system: testosterone; assay: Serum testosterone concentration-time profile (LC-MS/MS); format: in vivo, men; details: for Number of patients with testosterone below the castration level 0.5 ng/mL at one or more time-points / Percentage of patients with testosterone below the castration level 0.5 ng/mL at one or more time-points: up to Day 42; for Mean time to second return of testosterone to baseline interval (after the second administration): calculated, not measured values
[5] = system: prostate volume; assay: Prostate volume by transrectal ultrasound; format: in vivo, men
Protocol: as §1, §3, §2
The prostate volume was measured by transrectal ultrasound with the patient in a lateral position. The prostatic gland was sonicated from two directions perpendicular to one another resulting in three cursor positions set by the urologist. The volume was calculated automatically. The investigations were performed by urologists by methods known in the art.

[6] = 16+16 mg, Month 6 follow-up, n=6
[7] = 32+32 mg, Month 6 follow-up, n=7
[8] = combined group (all doses), Day 42
[9] = 16+16 mg, after the first administration
[10] = 16+16 mg, after the second administration
[11] = 32+32 mg, after the first administration
[12] = 32+32 mg, after the second administration
[13] = first dose of the 32+32 mg combined with the single dose 32 mg data

CC(=O)N[C@H](Cc1ccc2ccccc2c1)C(=O)N[C@H](Cc1ccc(Cl)cc1)C(=O)N[C@H](Cc1cccnc1)C(=O)N[C@@H](CO)C(=O)N[C@@H](Cc1ccc(NC(=O)[C@@H]2CC(=O)NC(=O)N2)cc1)C(=O)N[C@H](Cc1ccc(NC(N)=O)cc1)C(=O)N[C@@H](CC(C)C)C(=O)N[C@@H](CCCCNC(C)C)C(=O)N1CCC[C@H]1C(=O)N[C@H](C)C(N)=O [Degarelix, D-Alaninamide, N-acetyl-3-(2-naphthalenyl)-D-alanyl-4-chloro-D-phenylalanyl-3-(3-pyridinyl)-D-alanyl-L-seryl-4-[[[(4S)-hexahydro-2,6-dioxo-4-pyrimidinyl]carbonyl]amino]-L-phenylalanyl-4-[(aminocarbonyl)amino]-D-phenylalanyl-L leucyl-N6-(1-methylethyl)-L-lysyl-L-prolyl] (Ac-[d2Nal][dPhe(4-Cl)][d3Pal]S[Phe(4-NH2)](Dihydroorotyl(S))[dPhe(4-NHCONH2)]L[Lys(iPr)]P[dA]-NH2)
Change of IIEF scores [1]: mild decrease
Mean IPSS global QoL score, mean (SD) ([2]; 32 mg, Day 42, N=12): 1.8 (2.0)
Mean change from baseline in IPSS global QoL score, mean (SD) ([2]; 32 mg, Day 42, N=12): −2.1 (3.0)
Change from baseline in IPSS global QoL score, mean (SD) ([2]; 32 mg, Month 6 follow-up, n=7): −1.4 (1.1)
Mean IPSS global QoL score, mean (SD) ([2]; 32 mg, Month 6 follow-up, n=7): 1.4 (1.5)
Mean IPSS global QoL score, mean (SD) ([2]; 64 mg, Day 42, N=13): 2.5 (1.3)
Mean change from baseline in IPSS global QoL score, mean (SD) ([2]; 64 mg, Day 42, N=13): −2.2 (1.6)
Change from baseline in IPSS global QoL score, mean (SD) ([2]; 64 mg, Month 6 follow-up, n=4): −0.8 (1.7)
Mean IPSS global QoL score, mean (SD) ([2]; 64 mg, Month 6 follow-up, n=4): 3.8 (1.3)
Mean IPSS global QoL score, mean (SD) ([2]; 16+16 mg, Day 42, N=13): 2.9 (1.4)
Mean change from baseline in IPSS global QoL score, mean (SD) ([2]; 16+16 mg, Day 42, N=13): −1.2 (1.4)
Change from baseline in IPSS global QoL score, mean (SD) [2, 6]: −0.3 (0.5)
Mean IPSS global QoL score, mean (SD) [2, 6]: 4.2 (1.5)
Mean IPSS global QoL score, mean (SD) ([2]; 32+32 mg, Day 42, N=12): 1.9 (1.6)
Mean change from baseline in IPSS global QoL score, mean (SD) ([2]; 32+32 mg, Day 42, N=12): −2.4 (1.9)
Change from baseline in IPSS global QoL score, mean (SD) [2, 7]: −2.7 (2.1)
Mean IPSS global QoL score, mean (SD) [2, 7]: 1.6 (0.8)
Patients feeling delighted, pleased, or mostly satisfied (IPSS Global QoL scores 0-2) [2, 8]: 58%
Patients feeling unhappy or terrible (IPSS Global QoL scores 5 and 6) [2, 8]: 12%
Mean post-void residual volume ([3]; Day 14, apparent dose dependent way): decreased
Mean post-void residual volume versus baseline ([3]; Day 42): lower than the baseline value
Number of patients in whom post-void residual volume had decreased compared to baseline ([3]; Day 42): 33 patients
Number of patients in whom post-void residual volume increased compared to baseline ([3]; Day 42): 17 patients
Greatest change from baseline in mean testosterone ([4]; 32 mg): -4.2 ng/mL
Mean minimal value of testosterone (Cnadir) ([4]; 32 mg): 0.9 ng/mL
Mean time-point (tnadir) to Cnadir of testosterone ([4]; 32 mg): 1.3 days
Lowest mean testosterone level ([4]; 32 mg, Day 1, SD 0.5): 0.9 ng/mL
Mean testosterone level on Day 42 ([4]; 32 mg, Day 42 (5.2 at baseline)): 5.3 ng/mL
Mean time for first return of testosterone to baseline interval after the first administration ([4]; 32 mg, SD=5.2): 9.1 days
Mean area of testosterone concentrations below 0.5 ng/mL ([4]; 32 mg, range 0.0-0.1): 0.0 ng·days/mL
Number of patients with testosterone below the castration level 0.5 ng/mL at one or more time-points ([4]; 32 mg): 3 patients
Percentage of patients with testosterone below the castration level 0.5 ng/mL at one or more time-points ([4]; 32 mg): 25%
Greatest change from baseline in mean testosterone ([4]; 64 mg): -4.7 ng/mL
Mean minimal value of testosterone (Cnadir) ([4]; 64 mg): 0.4 ng/mL
Mean time-point (tnadir) to Cnadir of testosterone ([4]; 64 mg): 8.8 days
Lowest mean testosterone level ([4]; 64 mg, Day 1, SD 0.2): 0.4 ng/mL
Mean testosterone level on Day 42 ([4]; 64 mg, Day 42 (5.2 at baseline)): 3.0 ng/mL
Patients still below testosterone 0.5 ng/mL on Day 42 ([4]; 64 mg, Day 42, of the 8 patients suppressed): Five
Mean area of testosterone concentrations below 0.5 ng/mL ([4]; 64 mg, range 0.0-15.2): 4.4 ng·days/mL
Number of patients with testosterone below the castration level 0.5 ng/mL at one or more time-points ([4]; 64 mg): 9 patients
Percentage of patients with testosterone below the castration level 0.5 ng/mL at one or more time-points ([4]; 64 mg): 69%
Greatest change from baseline in mean testosterone ([4]; 16+16 mg): -4.0 ng/mL
Lowest mean testosterone level ([4]; 16+16 mg, Day 1, SD 0.5): 1.4 ng/mL
Mean testosterone level on Day 42 ([4]; 16+16 mg, Day 42 (5.5 at baseline)): 4.5 ng/mL
Mean time for first return of testosterone to baseline interval after the first administration ([4]; 16+16 mg, SD=2.8): 6.1 days
Mean time to second return of testosterone to baseline interval (after the second administration) ([4]; 16+16 mg, SD=33.9): 19.5 days
Mean minimal value of testosterone (Cnadir) [4, 9]: 1.4 ng/mL
Mean time-point (tnadir) to Cnadir of testosterone [4, 9]: 1.1 days
Mean minimal value of testosterone (Cnadir) [4, 10]: 2.0 ng/mL
Mean time-point (tnadir) to Cnadir of testosterone [4, 10]: 4.0 days
Mean area of testosterone concentrations below 0.5 ng/mL ([4]; 16+16 mg, range 0.0-0.0): 0.0 ng·days/mL
Number of patients with testosterone below the castration level 0.5 ng/mL at one or more time-points ([4]; 16+16 mg): 2 patients
Percentage of patients with testosterone below the castration level 0.5 ng/mL at one or more time-points ([4]; 16+16 mg): 15%
Greatest change from baseline in mean testosterone ([4]; 32+32 mg): -4.1 ng/mL
Lowest mean testosterone level ([4]; 32+32 mg, Day 17 (after second administration), SD 0.3): 0.4 ng/mL
Subjects that had not regained testosterone levels >0.5 ng/mL at Day 42 ([4]; 32+32 mg, Day 42): Three
Mean testosterone level on Day 42 ([4]; 32+32 mg, Day 42 (4.5 at baseline)): 2.7 ng/mL
Mean time for first return of testosterone to baseline interval after the first administration ([4]; 32+32 mg, SD=2.6): 9.1 days
Mean time to second return of testosterone to baseline interval (after the second administration) ([4]; 32+32 mg, SD=83.5): 64.2 days
Mean minimal value of testosterone (Cnadir) [4, 11]: 0.6 ng/mL
Mean time-point (tnadir) to Cnadir of testosterone [4, 11]: 3.2 days
Mean minimal value of testosterone (Cnadir) [4, 12]: 0.4 ng/mL
Mean time-point (tnadir) to Cnadir of testosterone [4, 12]: 4.3 days
Mean area of testosterone concentrations below 0.5 ng/mL ([4]; 32+32 mg, range 0.0-15.3): 2.8 ng·days/mL
Number of patients with testosterone below the castration level 0.5 ng/mL at one or more time-points ([4]; 32+32 mg): 9 patients
Percentage of patients with testosterone below the castration level 0.5 ng/mL at one or more time-points ([4]; 32+32 mg): 75%
Number of patients castrated (testosterone below 0.5 ng/mL), for generally 2-4 days [4, 13]: 8 patients
Percentage of patients castrated (testosterone below 0.5 ng/mL), for generally 2-4 days [4, 13]: 33%
Larger area below and longer time to return to the testosterone baseline interval ([4]; groups given a total of 64 mg compared to the total dose 32 mg): more than 2 fold
Mean (SD) Prostate Volume ([5]; 32 mg, Day 42, N=12): 34.8 (14.2) mL
Prostate Volume, Change from Baseline, mean (SD) ([5]; 32 mg, Day 42, N=12): −13.9 (14.7) mL
Prostate Volume, Percentage Change from Baseline, mean (SD) ([5]; 32 mg, Day 42, N=12): −25.1 (18.0) %
Mean (SD) Prostate Volume ([5]; 32 mg, Month 6 follow-up, n=7): 34.3 (13.9) mL
Prostate Volume, Change from Baseline, mean (SD) ([5]; 32 mg, Month 6 follow-up, n=7): −11.6 (5.1) mL
Prostate Volume, Percentage Change from Baseline, mean (SD) ([5]; 32 mg, Month 6 follow-up, n=7): −25.6 (8.0) %
Mean (SD) Prostate Volume ([5]; 64 mg, Day 42, N=13): 30.6 (10.5) mL
Prostate Volume, Change from Baseline, mean (SD) ([5]; 64 mg, Day 42, N=13): −8.2 (10.2) mL
Prostate Volume, Percentage Change from Baseline, mean (SD) ([5]; 64 mg, Day 42, N=13): −19.7 (23.2) %
Mean (SD) Prostate Volume ([5]; 64 mg, Month 6 follow-up, n=4): 29.0 (3.4) mL
Prostate Volume, Change from Baseline, mean (SD) ([5]; 64 mg, Month 6 follow-up, n=4): −9.7 (10.4) mL
Prostate Volume, Percentage Change from Baseline, mean (SD) ([5]; 64 mg, Month 6 follow-up, n=4): −21.5 (20.6) %
Mean (SD) Prostate Volume ([5]; 16+16 mg, Day 42, N=13): 34.5 (11.0) mL
Prostate Volume, Change from Baseline, mean (SD) ([5]; 16+16 mg, Day 42, N=13): −7.5 (7.7) mL
Prostate Volume, Percentage Change from Baseline, mean (SD) ([5]; 16+16 mg, Day 42, N=13): −17.0 (16.7) %
Mean (SD) Prostate Volume [5, 6]: 29.6 (10.4) mL
Prostate Volume, Change from Baseline, mean (SD) [5, 6]: −11.2 (4.4) mL
Prostate Volume, Percentage Change from Baseline, mean (SD) [5, 6]: −27.8 (8.7) %
Mean (SD) Prostate Volume ([5]; 32+32 mg, Day 42, N=12): 28.7 (8.2) mL
Prostate Volume, Change from Baseline, mean (SD) ([5]; 32+32 mg, Day 42, N=12): −9.4 (9.3) mL
Prostate Volume, Percentage Change from Baseline, mean (SD) ([5]; 32+32 mg, Day 42, N=12): −23.5 (20.9) %
Mean (SD) Prostate Volume [5, 7]: 26.5 (6.0) mL
Prostate Volume, Change from Baseline, mean (SD) [5, 7]: −10.6 (8.8) mL
Prostate Volume, Percentage Change from Baseline, mean (SD) [5, 7]: −27.1 (17.3) %
